Data taken from article PMC7085114 (Biochemistry, 2020).
Entries after “also recorded” stand apart in the source; their conditions may differ. Read-outs that look alike come from different tables or passages of the source.

How the values were obtained:
SARM1 TIR domain [1] = molecular target: T1, SARM1 TIR domain (Homo sapiens, UniProt Q6SZW1); experiment: Continuous fluorescent ENAD hydrolysis assay, SARM1 TIR domain in lysate; assay type: biochemical; settings: for Inhibition of SARM1 (in words): 0 – 1 mM analog, ENAD 50 μM
T1 sequence (Q6SZW1 561-724): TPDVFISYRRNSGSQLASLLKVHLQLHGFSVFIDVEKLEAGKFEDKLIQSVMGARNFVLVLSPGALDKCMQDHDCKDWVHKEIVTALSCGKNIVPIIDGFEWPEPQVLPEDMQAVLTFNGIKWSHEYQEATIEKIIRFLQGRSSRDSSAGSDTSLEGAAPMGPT

full length SARM1 = molecular target: T2, full length SARM1 (Homo sapiens, UniProt Q6SZW1); settings: Full length SARM1, substrate ENAD
T2 sequence (Q6SZW1 28-724): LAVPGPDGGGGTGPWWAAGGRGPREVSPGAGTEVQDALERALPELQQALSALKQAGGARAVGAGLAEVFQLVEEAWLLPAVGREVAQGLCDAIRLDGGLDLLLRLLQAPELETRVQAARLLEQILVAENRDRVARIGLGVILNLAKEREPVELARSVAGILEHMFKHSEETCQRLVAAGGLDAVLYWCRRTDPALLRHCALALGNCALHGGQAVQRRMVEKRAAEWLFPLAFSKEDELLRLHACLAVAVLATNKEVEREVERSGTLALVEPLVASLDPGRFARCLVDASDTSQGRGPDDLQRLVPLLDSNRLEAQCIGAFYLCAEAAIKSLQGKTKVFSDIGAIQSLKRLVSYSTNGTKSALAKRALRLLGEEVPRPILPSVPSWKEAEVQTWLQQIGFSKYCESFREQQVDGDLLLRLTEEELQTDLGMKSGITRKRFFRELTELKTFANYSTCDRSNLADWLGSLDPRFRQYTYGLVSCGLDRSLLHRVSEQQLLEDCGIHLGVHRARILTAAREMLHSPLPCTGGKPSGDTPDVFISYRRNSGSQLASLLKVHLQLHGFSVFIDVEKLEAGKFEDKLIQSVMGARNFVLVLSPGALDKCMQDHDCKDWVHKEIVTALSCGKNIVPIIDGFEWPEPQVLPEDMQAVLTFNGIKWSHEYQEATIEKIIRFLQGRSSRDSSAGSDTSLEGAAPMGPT

SARM1 SAM^1–2TIR domains = molecular target: T3, SARM1 SAM^1–2TIR domains (Homo sapiens, UniProt Q6SZW1); settings: SAM TIR construct, substrate ENAD
T3 sequence (Q6SZW1 412-724): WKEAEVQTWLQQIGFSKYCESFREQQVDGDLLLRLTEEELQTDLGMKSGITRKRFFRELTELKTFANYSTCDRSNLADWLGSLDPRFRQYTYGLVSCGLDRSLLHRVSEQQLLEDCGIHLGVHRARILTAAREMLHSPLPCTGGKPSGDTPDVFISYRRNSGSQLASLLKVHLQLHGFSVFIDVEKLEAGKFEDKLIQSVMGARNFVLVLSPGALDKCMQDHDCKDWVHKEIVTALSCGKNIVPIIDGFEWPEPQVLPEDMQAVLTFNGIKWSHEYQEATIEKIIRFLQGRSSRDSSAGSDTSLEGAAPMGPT

SARM1 TIR domain [2] = molecular target: T1, SARM1 TIR domain; experiment: Luminescent NNMT-coupled NAD+ hydrolysis assay; assay type: biochemical; settings: TIR domain on affinity beads, substrate NAD^+
CD38 = settings: cited from earlier work
Sir2 = settings: ref [24]–[27]; cited from earlier work
[3] = 300 nM SARM1, ENAD 0 – 400 μM varied
[4] = 2 mM metal or EDTA, 300 nM SARM1, 200 μM ENAD

## O[C@@H](CS)[C@@H](O)CS (racemic) [DTT, dithiothreitrol]
SARM1 TIR domain [1]; 0 – 2 mM reducing agent, 100 μM ENAD
  Effect of reducing agents on SARM1 activity: Neither DTT nor TCEP altered SARM1 activity

## NC(=O)c1cnccc1Cl [4–CN, 4–chloronicotinamide]
SARM1 TIR domain [1]
  IC50: 640 ± 40 µM
  Ki: 700 ± 30 µM
  Inhibition of SARM1 (in words): inhibit SARM1
SARM1 TIR domain [1]; [3]
  Pattern (mechanism) of inhibition: noncompetitive
SARM1 TIR domain [1]; 300 nM SARM1, ENAD 0 – 400 μM varied, listed as 4-Chloronicotinamide
  Pattern (mechanism) of inhibition: noncompetitively

## NC(=O)c1ccc(Cl)nc1 [6-CN, 6–chloronicotinamide]
SARM1 TIR domain [1]
  Inhibition of SARM1 (in words): inhibit SARM1

## Nc1ncnc2c1ncn2[C@@H]1O[C@H](COP(=O)(O)OP(=O)(O)OC[C@H]2OC(O)[C@H](O)[C@@H]2O)[C@@H](O)[C@H]1O (stereo partly shown) [ADPR, ADP Ribose]
SARM1 TIR domain [1]; [3]
  Ki: 90 ± 10 µM
  Pattern (mechanism) of inhibition: competitive; also recorded: competitively

## [Ca+2].[Cl-].[Cl-] [CaCl2]
SARM1 TIR domain [1]; [4]
  Effect of divalent metal ions and EDTA on SARM1 catalysis: only Ni^2+ and Zn^2+ inhibit SARM1

## [Cl][Cd][Cl] [CdCl2]
SARM1 TIR domain [1]
  Effect of divalent metal ions and EDTA on SARM1 catalysis: only Ni^2+ and Zn^2+ inhibit SARM1

## [Cl-].[Cl-].[Co+2] [CoCl2]
SARM1 TIR domain [1]
  Effect of divalent metal ions and EDTA on SARM1 catalysis: only Ni^2+ and Zn^2+ inhibit SARM1

## [Cl][Cu][Cl] [CuCl2]
SARM1 TIR domain [1]; [4]
  Effect of divalent metal ions and EDTA on SARM1 catalysis: only Ni^2+ and Zn^2+ inhibit SARM1

## O=C(O)CN(CCN(CC(=O)O)CC(=O)O)CC(=O)O [EDTA, ethylenediaminetetraacetic acid]
SARM1 TIR domain [1]; [4]
  Effect of divalent metal ions and EDTA on SARM1 catalysis: lack of an effect

## NC(=O)c1ccc[n+]([C@@H]2O[C@H](COP(=O)([O-])OP(=O)(O)OC[C@H]3O[C@@H](n4cnc5c4ncn4ccnc54)[C@H](O)[C@@H]3O)[C@@H](O)[C@H]2O)c1 [ENAD, Nicotinamide 1, N^6–ethenoadenine dinucleotide]
SARM1 TIR domain [1]
  Km: 35 ± 10 µM
SARM1 TIR domain [1]; TIR domain, substrate ENAD, fluorescent assay
  kcat: 0.06 ± 0.03 s⁻¹
Full length SARM1
  Km: 70 ± 20 µM
  kcat: 0.40 ± 0.04 s⁻¹
SARM1 SAM^1–2TIR domains
  Km: 130 ± 20 µM
  kcat: 0.12 ± 0.02 s⁻¹

## [Cl-].[Cl-].[Mg+2] [MgCl2]
SARM1 TIR domain [1]; [4]
  Effect of divalent metal ions and EDTA on SARM1 catalysis: only Ni^2+ and Zn^2+ inhibit SARM1

## [Cl][Mn][Cl] [MnCl2]
SARM1 TIR domain [1]; [4]
  Effect of divalent metal ions and EDTA on SARM1 catalysis: only Ni^2+ and Zn^2+ inhibit SARM1

## NC(=O)c1ccc[n+]([C@@H]2O[C@H](COP(=O)([O-])OP(=O)(O)OC[C@H]3O[C@@H](n4cnc5c(N)ncnc54)[C@H](O)[C@@H]3O)[C@@H](O)[C@H]2O)c1 [NAD^+]
SARM1 TIR domain [2]
  Km: 28 ± 6 µM
  kcat: 0.21 ± 0.03 s⁻¹

## [Cl][Ni][Cl] [Ni^2+, NiCl2]
SARM1 TIR domain [1]
  Effect of divalent metal ions and EDTA on SARM1 catalysis: inhibit SARM1
SARM1 TIR domain [1]; read-out: IC50 of metal ion inhibition of SARM1
  IC50: 600 ± 100 µM

## O=C(O)CCP(CCC(=O)O)CCC(=O)O [TCEP, tris(2–carboxyethyl)phosphine]
SARM1 TIR domain [1]
  Effect of reducing agents on SARM1 activity: Neither DTT nor TCEP altered SARM1 activity

## [Cl-].[Cl-].[Zn+2] [Zn^2+, ZnCl2]
SARM1 TIR domain [1]; [4]
  Effect of divalent metal ions and EDTA on SARM1 catalysis: inhibit SARM1

## NC(=O)c1cccnc1 [nicotinamide]
CD38; ref [23]
  Ki: 7100 µM
CD38; ref [24]–[27]
  Pattern of inhibition: mixed inhibition
Sir2
  Pattern of inhibition: noncompetitive
